{"source": "patent US9422239B1", "about": "“Dual PPAR-δ PPAR-γ agonists” (Auburn University, priority 2013, dated 2016)", "key": {"[1]": {"target": "T1, PPARδ (PDK4-PPRE) (Homo sapiens, UniProt Q03181)", "T1 construct": "expressed in transfected cells; host or cells: HEK-293", "T1 sequence (Q03181 1-441)": "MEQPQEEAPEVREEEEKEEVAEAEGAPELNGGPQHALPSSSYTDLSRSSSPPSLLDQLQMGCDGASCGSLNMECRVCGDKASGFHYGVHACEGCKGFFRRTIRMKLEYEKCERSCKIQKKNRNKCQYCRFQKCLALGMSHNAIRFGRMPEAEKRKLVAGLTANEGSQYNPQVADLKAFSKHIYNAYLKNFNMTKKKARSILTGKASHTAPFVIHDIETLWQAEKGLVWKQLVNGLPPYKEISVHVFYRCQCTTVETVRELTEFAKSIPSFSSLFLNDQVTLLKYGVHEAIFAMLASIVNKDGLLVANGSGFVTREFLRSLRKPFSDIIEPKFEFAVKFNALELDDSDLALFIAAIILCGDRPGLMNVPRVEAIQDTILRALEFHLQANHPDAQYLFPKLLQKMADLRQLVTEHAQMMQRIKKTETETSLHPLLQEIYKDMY", "T1 sequence (P19793 1-462 partner)": "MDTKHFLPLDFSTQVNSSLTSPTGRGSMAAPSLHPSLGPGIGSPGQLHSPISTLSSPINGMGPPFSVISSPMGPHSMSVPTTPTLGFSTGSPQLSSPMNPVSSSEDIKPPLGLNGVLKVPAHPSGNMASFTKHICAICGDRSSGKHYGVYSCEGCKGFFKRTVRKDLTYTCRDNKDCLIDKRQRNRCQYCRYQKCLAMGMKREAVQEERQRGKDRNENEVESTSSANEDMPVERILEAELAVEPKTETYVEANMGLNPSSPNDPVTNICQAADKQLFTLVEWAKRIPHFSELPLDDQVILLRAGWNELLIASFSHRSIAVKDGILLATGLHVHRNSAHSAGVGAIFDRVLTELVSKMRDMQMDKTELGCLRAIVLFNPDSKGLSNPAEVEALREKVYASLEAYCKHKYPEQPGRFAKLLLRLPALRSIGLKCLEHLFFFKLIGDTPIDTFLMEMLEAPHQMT", "test": "PDK4-PPRE luciferase assay in HEK-293 cells", "assay_type": "cell-based", "from_the_text": "To validate the specificity of the novel compounds towards activation of PPARγ/δ targets, we tested the compounds capacity to bind to select PPARγ/δ Peroxisome Proliferator Response Elements (PPRE). The PPRE are unique sites located in the promoter region where PPARs bind and transcriptionally activate the target genes. AP2-PPRE is the PPARγ target involved in adipocyte growth and differentiation. PDK4-PPRE is a PPARδ target involved in regulating energy metabolism in the cell. These PPREs were inserted into a PGL3 luciferase vectors containing CMV promoters (ADDGENE) using PCR. These vectors were co-transfected with RXR, PPARγ/PPARδ and p-galactosidase vectors into HEK-293 cells using Lipofectamine 2000 (Invitrogen). Relative light units (RLU) were measured using a Glomax Luminometer (Promega). Data were standardized to p-galactosidase activity using ONPG (Promega)."}, "[2]": {"test_system": "PPARγ/δ targets", "test": "mRNA analyses of PPARγ/δ targets in 3T3-L1 adipocytes", "assay_type": "cell-based", "conditions": "10 μM", "from_the_text": "Compound 9 increased the gene expression of PPARγ targets MCAD, HSL, ATGL and adiponectin."}, "[3]": {"test_system": "H19-7 hippocampal cells", "test": "BDNF, post synaptic markers and spine formation in H19-7 hippocampal cells", "assay_type": "cell-based", "from_the_text": "As shown in FIGS. 15A & B, reduced BDNF protein and gene expression is observed in db/db hippocampi which helps explain the observation that diabetes attenuates the expression of post synaptic receptor expression levels in db/db mice hippocampi.\nAs mentioned above, BDNF is known to induce synaptogenesis, spine density, and post synaptic receptor expression in neurons but has been previously shown to be reduced in AD brains.\nThe novel compounds (e.g., compound 9) have been developed as tools to better study the effects of PPARγ activation in the hippocampus upon cognition in AD."}, "[4]": {"test": "Accumulation in the brain after repeated dosing", "assay_type": "in vivo, mice", "conditions": "10 mg/kg, after 3 weeks", "protocol": "Thus, a 10 mg/kg dose for 4 weeks can be administered."}, "[5]": {"test_system": "PPARγ targets", "test": "PPARγ target gene (mRNA) expression in hippocampi by qRT-PCR", "assay_type": "in vivo, mice", "conditions": "1 mg/kg orally, compared to rosiglitazone (ICV) and control", "protocol": "Male C57/b16 and leptin deficient (db/db) mice were purchased from Jackson Laboratories (Bar Harbor, Me.). Animals were maintained in 12 hours of dark-light cycle. […] Both drugs were suspended in sterile saline. Four additional groups comprised the control portion of the study and received physiological saline in the place of the drug treatment either orally or by ICV. […] All treatments extended for 2 weeks.\nTotal RNA was isolated from hippocampi using RNAeasy Lipid Tissue Mini Kit (Qiagen, Valencia, Calif.) and was converted to cDNA (iScript cDNA synthesis kit—Bio Rad, Hercules, Calif.). Real-time PCR was performed in triplicate using a RT2 SYBR Green/Fluorescein fast master mix (SA-Bioscience) and an iCycler real-time PCR thermocycler (Bio-Rad). Gene expression was normalized to β-actin. Relative gene expression was determined by the comparative CT method (30). The data is presented as mean+/−SEM."}}}
{"smiles": "Cc1ccc(CNCCCN(Cc2ccc(C(=O)O)cc2)Cc2cc(C(F)(F)F)cc(C(F)(F)F)c2)cc1", "note": "[Compound 9]", "values": [{"measurement": "Binding affinity for the PDK4-PPRE", "setting": "[1]", "value": "strong binding affinity"}, {"measurement": "Expression of genes associated with lipid accumulation and synthesis (FATP, CD36, DGAT)", "setting": "[2]", "value": "marginally induced"}, {"measurement": "Gene expression of PDK4", "setting": "[2]", "value": "increased"}, {"measurement": "Gene expression of PPARγ targets MCAD, HSL, ATGL and adiponectin", "setting": "[2]", "value": "increased"}, {"measurement": "Post synaptic density marker PSD95 expression", "setting": "[3]; H19-7 cells, western analysis", "value": "increase"}, {"measurement": "BDNF expression", "setting": "[3]; H19 cells", "value": "increase"}, {"measurement": "Spine formation", "setting": "[3]; H19 cells", "value": "promotes spine formation"}, {"measurement": "Accumulation in the brain", "setting": "[4]", "value": "accumulate in the brain"}, {"measurement": "Activation of PPARγ targets in hippocampi (mRNA expression)", "setting": "[5]", "value": "selective activation of PPARγ targets"}]}
